Measurements as given in US6376710B2, “Amidine compounds and their use as pesticides” (Sumitomo Chemical Co., Ltd., priority 2000, dated 2002).
Where two headings read alike, the source gives them in different places.

What was measured:
Assay type in all cases: in vivo
[1] = test system: German cockroach (Blattella germanica); test: Test Example 2: treated filter paper with sucrose bait, German cockroach male adults, mortality; settings: 144 h
[2] = test system: common mosquito (Culex pipiens pallens); test: Test Example 4: treated water, common mosquito final-instar larvae, mortality; settings: 192 h
[3] = test system: house fly (Musca domeestica); test: Test Example 3: treated filter paper with sucrose bait, house fly female adults, mortality; settings: 24 h
Method: On the bottom of a polyethylene cup of 5.5 cm in diameter was placed a filter paper of the same size, to which a water dilution (500 ppm) of each of the formulations obtained from present compounds 1, 2, 3, 4, 5, 6, 7, 8, 9, 10, 11, 12, 13, 14, 15, 16, 17, 18, 19, 20, 21, 25, 26, 27, 28, 29, 32, 33, 34, 35, 36, 37, 38, 39, 40, 41, 42, 43, 44, 45, 47, 51, 52, 53, 54, 55, 60, and 61 according to Formulation Example 1 was added dropwise in an amount of 0.7 ml, and the cup was uniformly charged with about 30 mg of sucrose as a bait. Ten female adults of house fly (Musca domeestica) were set free in each cup, which was then kept covered. After 1 day, their survival was examined to determine the mortality.

[4] = water dilution (500 ppm) of flowable (Formulation Example 1), 0.7 ml on filter paper, male adults, after 6 days, read-out: mortality
[5] = active ingredient 3.5 ppm in ion-exchanged water (0.7 ml of 500 ppm dilution), final-instar larvae, after 8 days, read-out: mortality
[6] = water dilution (500 ppm) of flowable (Formulation Example 1), 0.7 ml on filter paper, female adults, after 1 day, read-out: mortality

NC(=Nc1c([N+](=O)[O-])cc(C(F)(F)F)cc1[N+](=O)[O-])C(F)(Cl)Cl [present compound 34, 2,2-Dichloro-N-(2,6-dinitro-4-trifluoromethylphenyl)-2-fluoroacetamidine]
100%: mortality at 500 µg/mL [1] | mortality at 3.5 ppm [2] | mortality at 500 µg/mL [3]

COC(F)(C(N)=Nc1c([N+](=O)[O-])cc(C(F)(F)F)cc1[N+](=O)[O-])C(F)(F)F (stereo not drawn) [present compound 41, N-(2,6-Dinitro-4-trifluoromethylphenyl)-2-methoxy-2,3,3,3-tetrafluoropropionamidine]
100%: mortality at 500 µg/mL [1] | mortality at 3.5 ppm [2] | mortality at 500 µg/mL [3]

NC(=Nc1c([N+](=O)[O-])cc(C(F)(F)C(F)(F)C(F)(F)F)cc1[N+](=O)[O-])C(F)(F)C(F)(F)F [present compound 47, N-(2,6-Dinitro-4-heptafluoropropylphenyl)-2,2,3,3,3-pentafluoropropionamidine]
100%: mortality at 500 µg/mL [1] | mortality at 3.5 ppm [2] | mortality at 500 µg/mL [3]

NC(=Nc1c(Cl)cc(C(F)(F)F)cc1Cl)C(F)(F)Cl [present compound 5, 2-Chloro-N-(2,6-dichloro-4-trifluoromethylphenyl)-2,2-difluoroacetamidine]
100%: mortality at 500 µg/mL [1] | mortality at 3.5 ppm [2] | mortality at 500 µg/mL [3]

CC(=O)NC(=Nc1c(Cl)cc(C(F)(F)F)cc1Cl)C(F)(F)C(F)(F)F [present compound 61, N-[1-(2,6-dichloro-4-trifluoromethylphenylimino)-2,2,3,3,3-pentafluoropropyl]-acetamide]
100%: mortality at 500 µg/mL [1] | mortality at 3.5 ppm [2] | mortality at 500 µg/mL [3]

NC(=Nc1c(Cl)cc(OC(F)(F)F)cc1Cl)C(F)(F)C(F)(F)F [present compound 18, N-(2,6-Dichloro-4-trifluoromethoxyphenyl)-2,2,3,3,3-pentafluoropropionamidine]
100%: mortality at 500 µg/mL [1] | mortality at 3.5 ppm [2] | mortality at 500 µg/mL [3]

NC(=Nc1c([N+](=O)[O-])cc(C(F)(F)F)cc1[N+](=O)[O-])C(F)(Cl)C(F)(F)Br (stereo not drawn) [present compound 40, 3-Bromo-2-chloro-N-(2,6-dinitro-4-trifluoromethylphenyl)-2,3,3-trifluoropropionamidine]
100%: mortality at 500 µg/mL [1] | mortality at 3.5 ppm [2] | mortality at 500 µg/mL [3]

NC(=Nc1c(F)cc(C(F)(F)F)cc1Cl)C(F)(F)C(F)(F)F [present compound 19, N-(2-Chloro-6-fluoro-4-trifluoromethylphenyl)-2,2,3,3,3-pentafluoropropionamidine]
100%: mortality at 500 µg/mL [1] | mortality at 3.5 ppm [2] | mortality at 500 µg/mL [3]

NC(=Nc1c(Cl)cc(C(F)(F)F)cc1Br)C(F)(F)C(F)(F)F [present compound 10, N-(2-Bromo-6-chloro-4-trifluoromethylphenyl)-2,2,3,3,3-pentafluoropropionamidine]
100%: mortality at 500 µg/mL [1] | mortality at 3.5 ppm [2] | mortality at 500 µg/mL [3]

CNC(=Nc1c(Cl)cc(C(F)(F)F)cc1Cl)C(F)(F)F [present compound 55, N′-(2,6-Dichloro-4-trifluoromethylphenyl)-2,2,2-trifluoro-N-methylacetamidine]
100%: mortality at 500 µg/mL [1] | mortality at 3.5 ppm [2] | mortality at 500 µg/mL [3]

NC(=Nc1c([N+](=O)[O-])cc(C(F)(F)F)cc1[N+](=O)[O-])C(F)(F)C(F)(F)Br [present compound 39, 3-Bromo-N-(2,6-dinitro-4-trifluoromethylphenyl)-2,2,3,3-tetrafluoropropionamidine]
100%: mortality at 500 µg/mL [1] | mortality at 3.5 ppm [2] | mortality at 500 µg/mL [3]

NC(=Nc1c([N+](=O)[O-])cc(C(F)(F)F)cc1[N+](=O)[O-])C(F)(F)Cl [present compound 28, 2-Chloro-2,2-difluoro-N-(2,6-dinitro-4-trifluoromethylphenyl)acetamidine]
100%: mortality at 500 µg/mL [1] | mortality at 3.5 ppm [2] | mortality at 500 µg/mL [3]

N#Cc1cc(C(F)(F)F)cc(Cl)c1N=C(N)C(F)(F)C(F)(F)F [present compound 14, N-(2-Chloro-6-cyano-4-trifluoromethylphenyl)-2,2,3,3,3-pentafluoropropionamidine]
100%: mortality at 500 µg/mL [1] | mortality at 3.5 ppm [2] | mortality at 500 µg/mL [3]

CN(C)C(=Nc1c(Cl)cc(C(F)(F)F)cc1Cl)C(F)(F)Cl [present compound 54, 2-Chloro-N′-(2,6-dichloro-4-trifluoromethylphenyl)-2,2-difluoro-N,N-dimethylacetamidine]
100%: mortality at 500 µg/mL [1] | mortality at 3.5 ppm [2] | mortality at 500 µg/mL [3]

NC(=Nc1c([N+](=O)[O-])cc(C(F)(F)F)cc1[N+](=O)[O-])C(F)(F)Br [present compound 25, 2-Bromo-2,2-difluoro-N-(2,6-dinitro-4-trifluoromethylphenyl) acetamidine]
100%: mortality at 500 µg/mL [1] | mortality at 3.5 ppm [2] | mortality at 500 µg/mL [3]

NC(=Nc1c(Cl)cc(C(F)(F)F)cc1[N+](=O)[O-])C(F)(F)C(F)(F)F [present compound 8, N-(2-Chloro-6-nitro-4-trifluoromethylphenyl)-2,2,3,3,3-pentafluoropropionamidine]
100%: mortality at 500 µg/mL [1] | mortality at 3.5 ppm [2] | mortality at 500 µg/mL [3]

CC(F)(F)C(N)=Nc1c([N+](=O)[O-])cc(C(F)(F)F)cc1[N+](=O)[O-] [present compound 36, 2,2-Difluoro-N-(2,6-dinitro-4-trifluoromethylphenyl)propionamidine]
100%: mortality at 500 µg/mL [1] | mortality at 3.5 ppm [2] | mortality at 500 µg/mL [3]

NC(=Nc1c(F)cc(C(F)(F)F)cc1F)C(F)(F)C(F)(F)F [present compound 9, N-(2,6-Difluoro-4-trifluoromethylphenyl)-2,2,3,3,3-pentafluoropropionamidine]
100%: mortality at 500 µg/mL [1] | mortality at 3.5 ppm [2] | mortality at 500 µg/mL [3]

NC(=Nc1c(Cl)cc(C(F)(F)F)cc1Cl)C(F)(F)C(F)(F)C(F)(F)F [present compound 11, N-(2,6-Dichloro-4-trifluoromethylphenyl)-2,2,3,3,4,4,4-heptafluorobutyramidine]
100%: mortality at 500 µg/mL [1, 4] | mortality at 3.5 ppm [2, 5] | mortality at 500 µg/mL [3, 6]

NC(=Nc1c(Cl)cc(C(F)(F)F)cc1[N+](=O)[O-])C(F)(F)C(F)(F)C(F)(F)F [present compound 32, N-(2-Chloro-6-nitro-4-trifluoromethylphenyl)-2,2,3,3,4,4,4-heptafluorobutyramidine]
100%: mortality at 500 µg/mL [1, 4] | mortality at 3.5 ppm [2, 5] | mortality at 500 µg/mL [3, 6]

NC(=Nc1c(Cl)cc(C(F)(F)F)cc1Cl)C(Cl)Cl [present compound 12, 2,2-Dichloro-N-(2,6-dichloro-4-trifluoromethylphenyl)acetamidine]
100%: mortality at 500 µg/mL [1] | mortality at 3.5 ppm [2] | mortality at 500 µg/mL [3]

NC(=Nc1c(Br)cc(C(F)(F)F)cc1[N+](=O)[O-])C(F)(F)C(F)(F)F [present compound 27, N-(2-Bromo-6-nitro-4-trifluoromethylphenyl)-2,2,3,3,3-pentafluoropropionamidine]
100%: mortality at 500 µg/mL [1] | mortality at 3.5 ppm [2] | mortality at 500 µg/mL [3]

NC(=Nc1c([N+](=O)[O-])cc(C(F)(F)C(F)(F)F)cc1[N+](=O)[O-])C(F)(F)C(F)(F)C(F)(F)F [present compound 42, N-(2,6-Dinitro-4-pentafluoroethylphenyl)-2,2,3,3,4,4,4-heptafluorobutyramidine]
100%: mortality at 500 µg/mL [1] | mortality at 3.5 ppm [2] | mortality at 500 µg/mL [3]

CN(C)C(=Nc1c(Cl)cc(C(F)(F)F)cc1Cl)C(F)(F)C(F)(F)F [present compound 53, N′-(2,6-Dichloro-4-trifluoromethylphenyl)-2,2,3,3,3-pentafluoro-N,N-dimethylpropionamidine]
100%: mortality at 500 µg/mL [1] | mortality at 3.5 ppm [2] | mortality at 500 µg/mL [3]

NC(=Nc1c(Br)cc(C(F)(F)F)cc1Br)C(F)(F)C(F)(F)F [present compound 17, N-(2,6-Dibromo-4-trifluoromethylphenyl)-2,2,3,3,3-pentafluoropropionamidine]
100%: mortality at 500 µg/mL [1] | mortality at 3.5 ppm [2] | mortality at 500 µg/mL [3]

NC(=Nc1c([N+](=O)[O-])cc(C(F)(F)F)cc1[N+](=O)[O-])C(F)(F)C(F)(Cl)C(F)(F)Cl (stereo not drawn) [present compound 37, 3,4-Dichloro-N-(2,6-dinitro-4-trifluoromethylphenyl)-2,2,3,4,4-pentafluorobutyramidine]
100%: mortality at 500 µg/mL [1] | mortality at 3.5 ppm [2] | mortality at 500 µg/mL [3]

NC(=Nc1c([N+](=O)[O-])cc(C(F)(F)F)cc1[N+](=O)[O-])C(F)(Br)C(F)(F)F (stereo not drawn) [present compound 29, 2-Bromo-N-(2,6-dinitro-4-trifluoromethylphenyl)-2,3,3,3-tetrafluoropropionamidine]
100%: mortality at 500 µg/mL [1] | mortality at 3.5 ppm [2] | mortality at 500 µg/mL [3]

Cc1cc(C(F)(F)F)cc(Cl)c1N=C(N)C(F)(F)C(F)(F)F [present compound 15, N-(2-Chloro-6-methyl-4-trifluoromethylphenyl)-2,2,3,3,3-pentafluoropropionamidine]
100%: mortality at 500 µg/mL [1] | mortality at 3.5 ppm [2] | mortality at 500 µg/mL [3]
